Where a SMILES comes first, the peptide text is derived from it. Where no end group is shown, it is not given here. didodecyl = two dodecyl groups (C12-C12) conjugated at the N terminus
Key:
[1] = tested on: Cx43 hemichannel and pannexin channel mediated ATP release from hCMVEC cells; test: In vitro ischaemia injury ATP assay; type: cell-based, human
Description: (§1) Using an in vitro ischemia injury model, the Cx43 hemichannel and pannexin channel mediated ATP release was differentiated using the connexin hemichannel blocking mimetic peptide5 at 100 μM concentration (S. J. O'Carroll, et al., Cell communication & adhesion 15, 27 (May, 2008)) and 1 mM Probenecid (W. R. Silverman et al., The Journal of biological chemistry 284, 18143 (Jul. 3, 2009)).
Human cerebral microvascular endothelial cells (hCMVEC) were trypsinised (TrypLE Express, Life technologies) and plated at a density of 0.025×10^6 cells per well in a collagen-coated 12-well plate (1 μg/cm2) a day prior to the experiment. Cells were incubated in culture medium overnight. Hypoxic, acidic, ion-shifted Ringer injury solution that mimics ionic concentrations and acid-base shifts of the interstitial space in hypoxic-ischemic brains (A. Bondarenko, et al., Glia 34, 143 (Apr. 15, 2001)) was used to trigger hemichannel opening. The injury solution (in mM): 38 NaCl, 13 NaHCO3, 3 Na-gluconate, 65 K-gluconate, 38 NMDG-Cl, 1 NaH2PO4, 1.5 MgCl2, was bubbled in N2 gas (>99% purity, 20 L/min) for 5 minutes and pH adjusted to 6.6 using 5 M HCl. Control solution that mimics physiological conditions contained (in mM): 124 NaCl, 3 KCl, 26 NaHCO3, […], 1 NaH2PO4, 1.3 CaCl2, 1.5 MgCl2, and 10 Glucose, and pH 7.4 was adjusted using 5 M HCl (Bondarenko, 2001). […] Following a 2-hour injury the solutions were immediately placed on ice. In the injury and reperfusion model, hCMVEC cells were incubated in 500 μL of normal solution or injury solution for 2 hours at 37° C. in 95% O2 and 5% CO2. Following 2 hour injury, the solutions were discarded and replaced with 500 μL of the normal solution, or Tonabersat (10 μM) dissolved in normal solution, and were incubated for 2 hours at 37° C. in 95% O2 and 5% CO2. These solutions were also then immediately placed on ice. Peptide5 (100 μM)+/−Probenecid (1 mM) were used as controls for both injury and injury-reperfusion models. ATP concentration in the samples was determined using a Luciferin/luciferase bioluminescence reaction (ATP Determination Kit, Molecular Probes) and detected using a luminescence plate reader (VICTOR X, Perkin Elmer #2030-0010). Standard curves were generated in each experiment from an ATP standard (500 nM) to quantify the concentration of ATP in the test samples. The data is presented as mean±standard error relative to the injury or injury-reperfusion control. Statistically significant differences between samples were identified using one-way analysis of variance and Tukey's multiple comparisons test.

[2] = tested on: hCMVEC cells; test: Scrape load assay (Lucifer yellow dye transfer); type: cell-based, human; details: broad spectrum gap-junction blocker, concentration not given
Description: In the below Examples 2, 4, 5, 8 and 10 using human cerebral microvascular endothelial cells (hCMVEC), cells were prepared by growing them in collagen coated (30 μg/mL) T25 or T75 flasks maintained in Medium M199 supplemented with 10% FCS, 1 μg/mL hydrocortisone, 3 ng/mL hFGF, 1 ng/mL hEGF, 10 μg/mL heparin, 1× penicillin streptomycin neomycin (Life Technologies), and cAMP (100 μL 100% cAMP to 100 mL media). Cells were maintained at 37° C. with 95% O2 and 5% CO2.
In this Example, human cerebral microvascular endothelial cells (hCMVEC) were grown in collagen coated (1 μg/mL) T25 flasks maintained in Medium M199 supplemented with 10% FBS, 1 μg/mL hydrocortisone, 3 ng/mL hFGF, 1 ng/mL hEGF, 10 μg/mL heparin and cAMP (100 μL 100% cAMP to 100 mL media) in a humidified atmosphere at 37° C. with 5% CO2. One day prior to experimentation, these cells were trypsinized and plated at a density of 4×10^5 cells/well in a collagen-coated 12 well-plate in the same medium. For treatments, cells were cultured in the presence of peptide5, a control gap junction channel blocker (carbenoxolone), or tonabersat for the respective time intervals prior to scrape dye loading. The blockers were also present in the respective scrape loading solutions.
For scrape loading the hCMVEC cells were washed three times with phosphate buffered saline (PBS) (without divalent cations). A solution of PBS+0.05% lucifer yellow was added to cells. The cells then received a scrape to the monolayer using a size 10 carbon steel surgical blade and incubated in the dark at 37° C. with 5% CO2 for 5 minutes. The cells were washed with PBS four times and then 1 mL of PBS added for fluorescent microscopy.
The live cells were then imaged on a Nikon TE2000E fluorescent microscope whilst maintained in a chamber heated to 37° C. with 5% CO2. Three images pairs were obtained at 10× magnification for each of a phase contrast image to view total cells and a fluorescent image to visualize Lucifer yellow using 488 nm excitation and a GFP filter block. Gap junctional communication was determined by counting the number of Lucifer yellow positive cells and presented as a percentage to the positive cells of the control group. Data was graphed as mean+standard error of the mean using Prism v5.02 software. Significance was determined through students two-tailed, unpaired, T Tests. *=p<0.05, **=[…], ***=p<0.001.
An in vitro scrape-loading assay with extracellular Lucifer Yellow (LY), a fluorescent dye that is transferred only through coupled GJs was performed to test whether Tonabersat inhibits GJ communication (M. H. el-Fouly, et al., Experimental cell research 168, 422 (February, 1987)). A single scrape wound was made to a confluent monolayer of hCMVEC cells to enable LY dye to gain access to the cytoplasm of cells at the edge of the wounded region and allow the dye to transfer to adjacent cells through GJs.

[3] = target: T1, Connexin43 hemichannel (Homo sapiens, UniProt P17302); test: Whole-cell voltage clamp, Connexin43 transfected HeLa cells; type: cell-based; details: voltage steps; peptide5 100 μM; carbenoxolone and LaCl3 concentration not stated
T1 construct: expressed in transfected cells; host or cells: HeLa (connexin-deficient parent), Cx43IRESeGFP, puromycin selection
Description: Whole-cell voltage clamp studies were conducted on connexin deficient HeLa cells, Connexin43 transfected HeLa cells and isolated human cerebral microvascular endothelial cells (hCMVEC).
HeLa cells were seeded at 0.045×10^6 cells/mL on 18 mm rat collagen I coated coverslips 16-24 hours before each experiment. Cx43IRESeGFP HeLa cells were cultured overnight in DMEM supplemented with 10% FCS and 1 μg/mL Puromycin at 37° C. at 95% O2 and 5% CO2. Control Cx-deficient cells were maintained in DMEM supplmented with 10% FCS. Coverslips were transferred to a chamber continuously perfused with modified Krebs-Ringer solution containing (in mM): 140 NaCl, 5.4 KCl, 1 MgCl2, 10 mM Hepes and pH adjusted to 7.4 at room temperature. The internal pipette solution contained (in mM): 130 KCl, 10 sodium aspartate, 0.26 CaCl2, 2 EGTA, 5 tetraethylammonium-Cl, 1 MgCl, 3 MgATP, and 5 Hepes at pH 7.2; and was kept on ice. The solutions are described in Contreras J E, et al., Cell Communication and Adhesion (2003), 10:245-249. To resolve single currents in whole-cell configuration, cells with low capacitance (<10 pF) and high resistance pipettes ([…]) with a seal resistance of (>5 GOhm) were selected for recording and analysis.

[4] = bovine
[5] = tested on: Cx43 hemichannel and pannexin channel mediated ATP release from hCMVEC cells; test: In vitro ischaemia injury-reperfusion ATP assay; type: cell-based, human; details: 2 h, 1000 µM
Description: as §1
Human cerebral microvascular endothelial cells (hCMVEC) were trypsinised (TrypLE Express, Life technologies) and plated at a density of 0.025×10^6 cells per well in a collagen-coated 12-well plate (1 μg/cm2) a day prior to the experiment. Cells were incubated in culture medium overnight. Hypoxic, acidic, ion-shifted Ringer injury solution that mimics ionic concentrations and acid-base shifts of the interstitial space in hypoxic-ischemic brains (A. Bondarenko, et al., Glia 34, 143 (Apr. 15, 2001)) was used to trigger hemichannel opening. […] ATP concentration in the samples was determined using a Luciferin/luciferase bioluminescence reaction (ATP Determination Kit, Molecular Probes) and detected using a luminescence plate reader (VICTOR X, Perkin Elmer #2030-0010). Standard curves were generated in each experiment from an ATP standard (500 nM) to quantify the concentration of ATP in the test samples. […]

[6] = tested on: Retinal ganglion cell; test: Retinal ischemia reperfusion (glaucoma model), RGC count; type: in vivo, Wistar rats; details: after 28 days
Description: (§2) The effects of chemical modification and particulate formulation delivery were measured on rats modelled for glaucoma with a retinal ischemia reperfusion. First, a retinal ischemia reperfusion model was created. A total of 121 adult male Wistar rats weighing 200 to 300 g were used for the study. Retinal ischemia was modeled in the left eye (120 mmHg for 60 min), with the right eye as the control, and then the connexin 43 modulator peptide formulations were injected intravitreally immediately as solutions in 1×PBS delivery agent. The connexin 43 modulator peptide used was SEQ-Pept5, in both its unmodified and chemically modified (didodecyl) forms. The formulations used were neat (just diluted in 1×PBS delivery media) solutions of nanoparticles or microparticles. After reperfusion, Evan's blue dye was injected intraperitoneally 4 hr after reperfusion to visualize vessel leak using confocal microscopy. Retinal whole mounts were collected at 8 hr and 28 days for Cxn43 quantitification, and 28 and 90 days for gangliol cell (RGC) density quantification.

[7] = target: Cxn43 (Rattus norvegicus, UniProt P08050); test: Retinal ischemia reperfusion (glaucoma model), Cxn43 quantification; type: in vivo, Wistar rats; details: 8 hr after ischemia
Description: as §2

[8] = tested on: retinal vessel leak; test: Retinal ischemia reperfusion (glaucoma model), vessel leak with Evan's blue dye; type: in vivo, Wistar rats; details: 4 hr post-ischemia, intravitreal
Description: as §2

T1 sequence (P17302 2-382 limits assumed): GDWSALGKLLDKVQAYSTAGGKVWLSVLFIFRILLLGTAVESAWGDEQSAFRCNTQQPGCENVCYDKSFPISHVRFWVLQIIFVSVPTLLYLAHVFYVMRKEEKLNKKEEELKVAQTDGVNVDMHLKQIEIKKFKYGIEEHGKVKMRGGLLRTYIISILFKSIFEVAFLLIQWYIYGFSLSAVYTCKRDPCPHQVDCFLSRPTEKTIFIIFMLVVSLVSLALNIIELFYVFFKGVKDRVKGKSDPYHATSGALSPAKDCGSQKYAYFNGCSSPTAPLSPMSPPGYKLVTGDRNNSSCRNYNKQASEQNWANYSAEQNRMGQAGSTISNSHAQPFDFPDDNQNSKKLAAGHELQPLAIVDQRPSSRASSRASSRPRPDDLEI
Cxn43, sequence (P08050 2-382 limits assumed): as the sequence (P17302 2-382 limits assumed) above, with D123E, I163V, K242R, S250T, A252P, A256S, Q262P, S343A, L346V counted along it

CC1(C)[C@@H](OC(=O)CCC(=O)O)CC[C@]2(C)[C@H]3C(=O)C=C4[C@@H]5C[C@@](C)(C(=O)O)CC[C@]5(C)CC[C@@]4(C)[C@]3(C)CC[C@@H]12 [Carbenoxolone]
level of the inhibition of ATP release ([1]; ischemic injury): 65% | LY positive cells compared to control [2]: 77.8±7.4% | Connexin43 hemichannel activity [3]: virtually complete hemichannel block

CC(C)C[C@H](NC(=O)[C@H](Cc1ccccc1)NC(=O)[C@H](CS)NC(=O)[C@H](CC(=O)O)NC(=O)[C@@H](N)C(C)C)C(=O)N[C@@H](CO)C(=O)N[C@@H](CCCNC(=N)N)C(=O)N1CCC[C@H]1C(=O)N[C@H](C(=O)N[C@@H](CCC(=O)O)C(=O)N[C@@H](CCCCN)C(=O)N[C@H](C(=O)O)[C@@H](C)O)[C@@H](C)O [Peptide5] (H-VDCFLSRPTEKT-OH)
half-life [4]: ~2 h

CCCN(CCC)S(=O)(=O)c1ccc(C(=O)O)cc1 [Probenecid, p-[Dipropylsulfamoyl]benzoic acid]
ATP release, percentage of the injury-reperfusion (IR) control [5]: 99.3±4.4% | total extracellular ATP release, percentage of the injury control ([1]; 2-hour injury, 100 μM Peptide5, 1 mM Probenecid, alone or combined): 83.1±4.5%

C12-C12 Cxn43 MP: connexin 43 modulator peptide conjugated at the N terminus to two dodecyl groups, SEQ ID NO: 237 (didodecyl-VDCFLSRPTEKT)
RGC survival [6]: over 93% | Cxn43 spot counts [7]: reduced moreso | vessel leak [8]: reduction in vessel leak

From patent US11401516B2, “Channel modulators” (AUCKLAND UNISERVICES LIMITED, priority 2014, dated 2022)
